Data: patent publication US7629457B2, “Method for producing cytosine nucleoside compounds” (priority 2001, dated 2009)

Columns and labels:
cytidine deaminase (cdd) = target: T1, cytidine deaminase (cdd) (Escherichia coli, UniProt P0ABF6); assay: cdd (cytidine deaminase) residual activity of MT-10905 cell mass suspension after processing with organic solvent; format: biochemical; conditions: for cdd Activity: organic solvent 50%
T1 construct: endogenous in cells; host or cells: E. coli DH5alpha transformed with pUC-PNP73 (strain MT-10905), whole cell mass suspension
Description: To the cell mass suspension of the strain MT-10905 obtained in Reference Example 2 was added a certain amount of methanol so as to attain any one of the methanol concentrations listed in Table 2, and then the suspension was kept at 30° C. for 1 hour. Cytidine deaminase will be expressed as cdd hereafter. The activity of cdd was analyzed after the cell mass suspension was added to 1.0 ml of the reaction solution consisting of 100 mM tris hydrochloride buffer (pH 8.0) and 20 mM cytidine, and then treated at 50° C. for 2 hours.
The cell mass suspension described above was kept at 30° C. for 1 hour without addition of methanol, and then the activity of cdd of the suspension was set at 100% of relative value.
(§1) The cell mass suspension heat treated for 20 hours in Example 3 was processed with methanol in the same way as in Example 1. The individual activities of the cell mass suspension that was heat treated for 20 hours in Example 3 were set at 100% and the remaining activities were expressed with relative values. The results shown in Table 5 reveal that the activity of PNP was reduced minimally, but the activities of both cod and cdd were eliminated nearly completely.

[1] = target: T2, PNP (purine nucleoside phosphorylase) (Escherichia coli, UniProt P0ABP8); assay: PNP residual activity of MT-10905 cell mass suspension after processing with organic solvent; format: biochemical; conditions: for PNP Activity: organic solvent 50%
T2 construct: expressed in transfected cells; host or cells: E. coli DH5alpha transformed with plasmid pUC-PNP73 (strain MT-10905), whole cell mass suspension
Description: The activity of PNP was analyzed after the cell mass suspension was added to 1.0 ml of the reaction solution consisting of 20 mM 2′-deoxyribose-1-phosphate di(monocyclohexylammonium) salt (produced by SIGMA), 5.4 mM adenine (produced by Wako Pure Chemicals, guaranteed grade) and 100 mM tris hydrochloride buffer (pH 8.0), and then treated at 50° C. or 15 minutes. The above reaction was conducted using such an amount of the cell mass as to produce not more than 2 mM deoxyadenosine. The cell mass suspension described above was kept at 30° C. for 1 hour without addition of methanol, and then the activity of PNP of the suspension was set at 100% of relative value. The results shown in Table 2 reveal that the activity of PNP was reduced minimally, but the activity of cdd was eliminated nearly completely.
as §1

cytosine deaminase (cod) = assay: cod (cytosine deaminase) residual activity of heat treated MT-10905 cell mass suspension after processing with methanol; format: biochemical, Escherichia coli; conditions: cells heat treated 60° C. 20 hours = 100%
Description: The cell mass suspension of the strain MT-10905 obtained in Reference Example 2 was kept at 60° C. Cytosine deaminase will be expressed as cod hereafter. The activity of cod was analyzed after the cell mass suspension was added to 100 mM tris hydrochloride buffer (pH 8.0) and 20 mM cytosine, and then treated at 50° C. for 2 hours. The cod activity of the cell mass suspension that was not heat treated was set at 100% and the remaining activities were expressed with relative values. The results shown in Table 4 reveal that the activity of PNP was reduced minimally, but the activity of cod was eliminated nearly completely.
as §1

[2] = MeOH 10%, 30° C. 1 hour, no methanol = 100%
[3] = MeOH 10%, cells heat treated 60° C. 20 hours = 100%
[4] = MeOH 25%, 30° C. 1 hour, no methanol = 100%
[5] = MeOH 25%, cells heat treated 60° C. 20 hours = 100%
[6] = MeOH 50%, 30° C. 1 hour, no methanol = 100%
[7] = MeOH 50%, cells heat treated 60° C. 20 hours = 100%
[8] = MeOH 70%, 30° C. 1 hour, no methanol = 100%
[9] = MeOH 70%, cells heat treated 60° C. 20 hours = 100%
[10] = MeOH 90%, 30° C. 1 hour, no methanol = 100%
[11] = MeOH 90%, cells heat treated 60° C. 20 hours = 100%

T1 sequence (P0ABF6 whole entry): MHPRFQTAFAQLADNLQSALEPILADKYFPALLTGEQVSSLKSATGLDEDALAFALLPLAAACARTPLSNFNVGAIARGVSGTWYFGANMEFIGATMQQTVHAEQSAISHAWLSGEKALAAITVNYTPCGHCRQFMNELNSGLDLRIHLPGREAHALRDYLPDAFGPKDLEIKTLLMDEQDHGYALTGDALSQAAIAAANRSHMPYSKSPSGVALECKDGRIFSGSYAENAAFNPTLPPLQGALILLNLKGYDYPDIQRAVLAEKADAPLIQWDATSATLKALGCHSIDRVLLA
T2 sequence (P0ABP8 2-239): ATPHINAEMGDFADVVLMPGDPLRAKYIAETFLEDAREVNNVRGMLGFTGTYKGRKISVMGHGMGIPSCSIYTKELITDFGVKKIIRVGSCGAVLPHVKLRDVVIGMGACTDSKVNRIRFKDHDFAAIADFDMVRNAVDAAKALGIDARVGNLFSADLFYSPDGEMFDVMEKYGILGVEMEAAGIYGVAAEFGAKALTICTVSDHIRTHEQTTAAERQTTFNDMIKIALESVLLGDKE

## C[S+](C)[O-] [Dimethyl Sulfoxide]
Cytidine deaminase (cdd); 30° C. 1 hour
  cdd Activity: 4%
[1]; 30° C. 1 hour
  PNP Activity: 96%

## CO [MeOH, methanol]
Cytidine deaminase (cdd); [2]
  cdd Residual Activity (%): 80%
Cytidine deaminase (cdd); [3]
  cdd Residual Activity (%): 80%
Cytidine deaminase (cdd); [4]
  cdd Residual Activity (%): 50%
Cytidine deaminase (cdd); [5]
  cdd Residual Activity (%): 50%
Cytidine deaminase (cdd); [6]
  cdd Residual Activity (%): 10%
Cytidine deaminase (cdd); [7]
  cdd Residual Activity (%): 10%
Cytidine deaminase (cdd); [8]
  cdd Residual Activity (%): 0.5%
Cytidine deaminase (cdd); [9]
  cdd Residual Activity (%): 0.5%
Cytidine deaminase (cdd); [10]
  cdd Residual Activity (%): 0.1%
Cytidine deaminase (cdd); [11]
  cdd Residual Activity (%): 0.1%
[1]; [2]
  PNP Residual Activity (%): 100%
[1]; [3]
  PNP Residual Activity (%): 100%
[1]; [4]
  PNP Residual Activity (%): 99%
[1]; [5]
  PNP Residual Activity (%): 98%
[1]; [6]
  PNP Residual Activity (%): 98%
[1]; [7]
  PNP Residual Activity (%): 96%
[1]; [8]
  PNP Residual Activity (%): 97%
[1]; [9]
  PNP Residual Activity (%): 96%
[1]; [10]
  PNP Residual Activity (%): 97%
[1]; [11]
  PNP Residual Activity (%): 96%
Cytosine deaminase (cod); MeOH 10%
  cod Residual Activity (%): 90%
Cytosine deaminase (cod); MeOH 25%
  cod Residual Activity (%): 80%
Cytosine deaminase (cod); MeOH 50%
  cod Residual Activity (%): 50%
Cytosine deaminase (cod); MeOH 70%
  cod Residual Activity (%): 30%
Cytosine deaminase (cod); MeOH 90%
  cod Residual Activity (%): 10%

## CN(C)C=O [N,N-Dimethylformamide]
Cytidine deaminase (cdd); 30° C. 1 hour
  cdd Activity: 5%
[1]; 30° C. 1 hour
  PNP Activity: 97%

## CN1CCN(C)C1=O [N,N-Dimethylimidazolidinone]
Cytidine deaminase (cdd); 30° C. 1 hour
  cdd Activity: 4%
[1]; 30° C. 1 hour
  PNP Activity: 95%
